Assay results from US7026339B2, “Inhibitors of HCV NS5B polymerase” (priority 2003, dated 2006).

Tested on: HuH-7 replicon cells 5–15 and 9–13 (HCV replication)
Assay: Inhibition of viral replication in HuH-7 replicon cells (HCV RNA / GAPDH RNA by multiplex RT-PCR)
Assay type: cell-based
Details: Hepatitis C virus, 72 h; inhibiting 50% of replication; HuH-7 replicon cells, 3 days; read-out: IC50
Summary of the method: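 HCV and GAPDH RNA were measured by multiplex TaqMan RT-PCR (HCV 5′ untranslated region) after 3-day compound treatment at 37 °C, final 100 μM–1 μM in 1% DMSO. Cells were plated 24 h beforehand at 7×10^3/well. Read-out: HCV-to-GAPDH ratio expressed as percent control versus untreated cells.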

| SMILES | IC50 [µM] |
| --- | --- |
| CC(=O)Nc1ccc(CNc2cccc(CC(=O)N/N=C/c3ccccc3OS(=O)(=O)c3ccc(C(F)(F)F)cc3)c2)cc1 [Compound 99, 2-((E)-{2-[2-(3-{[4-(acetylamino)benzyl]amino}phenyl)acetyl]-hydrazono}methyl)phenyl 4-(trifluoromethyl)benzenesulfonate] | < 5 |
| Cc1ccccc1C(=O)N/N=C/c1ccccc1OS(=O)(=O)c1ccc(C(F)(F)F)cc1 [Compound 100, 2-{(E)-[2-(2-methylbenzoyl)hydrazono]methyl}phenyl4-(trifluoromethyl)benzenesulfonate] | < 5 |
| O=C(N/N=C/c1ccccc1OS(=O)(=O)c1ccc(C(F)(F)F)cc1)C1CCCCC1 [Compound 101, 2-{(E)-[2-(cyclohexylcarbonyl)hydrazono]methyl}phenyl 4-(trifluoromethyl)benzenesulfonate] | 5 to 50 |
| O=C(N/N=C/c1ccccc1OS(=O)(=O)c1ccc(C(F)(F)F)cc1)c1c(F)cccc1F [Compound 102, 2-{(E)-[2-(2,6-difluorobenzoyl)hydrazono]methyl}phenyl4-(trifluoromethyl)benzenesulfonate] | < 5 |
| O=C(N/N=C/c1ccccc1OS(=O)(=O)c1ccc(C(F)(F)F)cc1)c1c(F)cccc1C(F)(F)F [Compound 103, 2-((E)-{2-[2-fluoro-6-(trifluoromethyl)benzoyl]hydrazono}methyl)-phenyl 4-(trifluoromethyl)benzenesulfonate] | < 5 |
| O=C(N/N=C/c1ccccc1OS(=O)(=O)c1ccc(C(F)(F)F)cc1)c1ccccc1C(F)(F)F [Compound 104, 2-((E)-{2-[2-(trifluoromethyl)benzoyl]hydrazono}methyl)-phenyl 4-(trifluoromethyl)benzenesulfonate] | < 5 |
| CCc1ccc(S(=O)(=O)N/N=C/c2ccccc2OS(=O)(=O)c2ccc(C(F)(F)F)cc2)cc1 [Compound 105, 2-((E)-{2-[(4-ethylphenyl)sulfonyl]hydrazono}methyl)-phenyl 4-(trifluoromethyl)benzenesulfonate] | 5 to 50 |
| Cn1cnc(CC(=O)N/N=C/c2ccccc2OS(=O)(=O)c2ccc(C(F)(F)F)cc2)c1 [Compound 106, 2-((E)-{2-[2-(1-methyl-1H-imidazol-4-yl)acetyl]hydrazono}methyl)phenyl 4-(trifluoromethyl)benzenesulfonate] | < 5 |
| O=C(Cn1c(Br)nc(Cl)c1Cl)N/N=C/c1ccccc1OS(=O)(=O)c1ccc(C(F)(F)F)cc1 [Compound 107, 2-((E)-{2-[2-(2-bromo-4,5-dichloro-1H-imidazol-1-yl)acetyl]hydrazono}methyl)phenyl 4-(trifluoromethyl)benzenesulfonate] | > 50 |
| O=C(Cc1ccccc1)N/N=C/c1ccccc1OS(=O)(=O)c1ccccc1 [Compound 108, 2-{(E)-[2-(2-phenylacetyl)hydrazono]methyl}phenylbenzenesulfonate] | > 50 |
| O=C(Cc1ccccc1)N/N=C/c1ccccc1OS(=O)(=O)c1cccs1 [Compound 109, 2-{(E)-[2-(2-phenylacetyl)hydrazono]methyl}phenylthiophene-2-sulfonate] | > 50 |
| Cc1ccccc1S(=O)(=O)Oc1ccccc1/C=N/NC(=O)Cc1ccccc1 [Compound 110, 2-{(E)-[2-(2-phenylacetyl)hydrazono]methyl}phenyl 2-methylbenzenesulfonate] | > 50 |
| Cc1cccc(S(=O)(=O)Oc2ccccc2/C=N/NC(=O)Cc2ccccc2)c1 [Compound 111, 2-{(E)-[2-(2-phenylacetyl)hydrazono]methyl}phenyl 3-methylbenzenesulfonate] | > 50 |
| O=C(Cc1ccccc1)N/N=C/c1ccccc1OS(=O)(=O)c1ccccc1F [Compound 112, 2-{(E)-[2-(2-phenylacetyl)hydrazono]methyl}phenyl 2-fluorobenzenesulfonate] | > 50 |
| O=C(Cc1ccccc1)N/N=C/c1ccccc1OS(=O)(=O)c1cccc(F)c1 [Compound 113, 2-{(E)-[2-(2-phenylacetyl)hydrazono]methyl}phenyl 3-fluorobenzenesulfonate] | > 50 |
| N#Cc1cccc(S(=O)(=O)Oc2ccccc2/C=N/NC(=O)Cc2ccccc2)c1 [Compound 114, 2-{(E)-[2-(2-phenylacetyl)hydrazono]methyl}phenyl 3-cyanobenzenesulfonate] | > 50 |
| N#Cc1ccc(S(=O)(=O)Oc2ccccc2/C=N/NC(=O)Cc2ccccc2)cc1 [Compound 115, 2-{(E)-[2-(2-phenylacetyl)hydrazono]methyl}phenyl 4-cyanobenzenesulfonate] | 5 to 50 |
| O=C(Cc1ccccc1)N/N=C/c1ccccc1OS(=O)(=O)c1cccc(Cl)c1 [Compound 116, 2-{(E)-[2-(2-phenylacetyl)hydrazono]methyl}phenyl 3-chlorobenzenesulfonate] | > 50 |
| O=C(Cc1ccccc1)N/N=C/c1ccccc1OS(=O)(=O)c1ccc(Cl)cc1 [Compound 117, 2-{(E)-[2-(2-phenylacetyl)hydrazono]methyl}phenyl 4-chlorobenzenesulfonate] | < 5 |
| O=C(Cc1ccccc1)N/N=C/c1ccccc1OS(=O)(=O)c1ccc(F)c(F)c1 [Compound 118, 2-{(E)-[2-(2-phenylacetyl)hydrazono]methyl}phenyl3,4-difluorobenzenesulfonate] | 5 to 50 |

| SMILES | IC50 [µM] |
| --- | --- |
| O=C(Cc1ccccc1)N/N=C/c1ccccc1OS(=O)(=O)c1ccc2ccccc2c1 [Compound 119, 2-{(E)-[2-(2-phenylacetyl)hydrazono]methyl}phenylnaphthalene-2-sulfonate] | < 5 |
| O=C(Cc1ccccc1)N/N=C/c1ccccc1OS(=O)(=O)c1ccc(F)c(Cl)c1 [Compound 120, 2-{(E)-[2-(2-phenylacetyl)hydrazono]methyl}phenyl 3-chloro-4-fluorobenzenesulfonate] | 5 to 50 |
| CC(C)(C)c1ccc(S(=O)(=O)Oc2ccccc2/C=N/NC(=O)Cc2ccccc2)cc1 [Compound 121, 2-{(E)-[2-(2-phenylacetyl)hydrazono]methyl}phenyl 4-tert-butylbenzenesulfonate] | < 5 |
| O=C(Cc1ccccc1)N/N=C/c1ccccc1OS(=O)(=O)c1cccc(C(F)(F)F)c1 [Compound 122, 2-{(E)-[2-(2-phenylacetyl)hydrazono]methyl}phenyl 3-(trifluoromethyl)benzenesulfonate] | 5 to 50 |
| O=C(Cc1ccccc1)N/N=C/c1ccccc1OS(=O)(=O)c1ccc(C(F)(F)F)cc1 [Compound 123, 2-{(E)-[2-(2-phenylacetyl)hydrazono]methyl}phenyl 4-(trifluoromethyl)benzenesulfonate] | < 5 |
| O=C(Cc1ccccc1)N/N=C/c1ccccc1OS(=O)(=O)c1ccc(Cl)cc1Cl [Compound 124, 2-{(E)-[2-(2-phenylacetyl)hydrazono]methyl}phenyl2,4-dichlorobenzenesulfonate] | < 5 |
| O=C(Cc1ccccc1)N/N=C/c1ccccc1OS(=O)(=O)c1ccc(Cl)c(Cl)c1 [Compound 125, 2-{(E)-[2-(2-phenylacetyl)hydrazono]methyl}phenyl3,4-dichlorobenzenesulfonate] | < 5 |
| O=C(Cc1ccccc1)N/N=C/c1ccccc1OS(=O)(=O)c1cc(Cl)cc(Cl)c1 [Compound 126, 2-{(E)-[2-(2-phenylacetyl)hydrazono]methyl}phenyl3,5-dichlorobenzenesulfonate] | 5 to 50 |
| O=C(Cc1ccccc1)N/N=C/c1ccccc1OS(=O)(=O)c1cccc(Br)c1 [Compound 127, 2-{(E)-[2-(2-phenylacetyl)hydrazono]methyl}phenyl 3-bromobenzenesulfonate] | 5 to 50 |
| O=C(Cc1ccccc1)N/N=C/c1ccccc1OS(=O)(=O)c1ccc(Br)cc1 [Compound 128, 2-{(E)-[2-(2-phenylacetyl)hydrazono]methyl}phenyl 4-bromobenzenesulfonate] | < 5 |
| O=C(Cc1ccccc1)N/N=C/c1ccccc1OS(=O)(=O)c1ccc(F)cc1 [Compound 129, 2-{(E)-[2-(2-phenylacetyl)hydrazono]methyl}phenyl 4-fluorobenzenesulfonate] | 5 to 50 |
| Cc1ccc(C)c(S(=O)(=O)Oc2ccccc2/C=N/NC(=O)Cc2ccccc2)c1 [Compound 130, 2-{(E)-[2-(2-phenylacetyl)hydrazono]methyl}phenyl2,5-dimethylbenzenesulfonate] | > 50 |
| COc1ccc(S(=O)(=O)Oc2ccccc2/C=N/NC(=O)Cc2ccccc2)cc1 [Compound 131, 2-{(E)-[2-(2-phenylacetyl)hydrazono]methyl}phenyl 4-methoxybenzenesulfonate] | < 5 |
| O=C(Cc1ccccc1)N/N=C/c1ccccc1OS(=O)(=O)c1ccccc1Cl [Compound 132, 2-{(E)-[2-(2-phenylacetyl)hydrazono]methyl}phenyl 2-chlorobenzenesulfonate] | > 50 |
| O=C(Cc1ccccc1)N/N=C/c1ccccc1OS(=O)(=O)c1ccc(F)cc1F [Compound 133, 2-{(E)-[2-(2-phenylacetyl)hydrazono]methyl}phenyl2,4-difluorobenzenesulfonate] | > 50 |
| CCCc1ccc(S(=O)(=O)Oc2ccccc2/C=N/NC(=O)Cc2ccccc2)cc1 [Compound 134, 2-{(E)-[2-(2-phenylacetyl)hydrazono]methyl}phenyl 4-propylbenzenesulfonate] | < 5 |
| CC(C)c1ccc(S(=O)(=O)Oc2ccccc2/C=N/NC(=O)Cc2ccccc2)cc1 [Compound 135, 2-{(E)-[2-(2-phenylacetyl)hydrazono]methyl}phenyl 4-isopropylbenzenesulfonate] | < 5 |
| O=C(Cc1ccccc1)N/N=C/c1ccccc1OS(=O)(=O)c1cccc2ccccc12 [Compound 136, 2-{(E)-[2-(2-phenylacetyl)hydrazono]methyl}phenylnaphthalene-1-sulfonate] | > 50 |
| O=C(Cc1ccccc1)N/N=C/c1ccccc1OS(=O)(=O)c1ccc(F)cc1Cl [Compound 137, 2-{(E)-[2-(2-phenylacetyl)hydrazono]methyl}phenyl 2-chloro-4-fluorobenzenesulfonate] | 5 to 50 |
